According to article PMC11845761, “Intestinal human carboxylesterase 2 (CES2) expression rescues drug metabolism and most metabolic syndrome phenotypes in global Ces2 cluster knockout mice” (Acta Pharmacologica Sinica, 2024):
Like-named read-outs stand apart in the source and are kept apart here. One block for each compound: values may come before it.

What was measured:
[1] = Tissue concentrations of capecitabine and its metabolites 2 h after oral capecitabine in CES2-modified mice; format: in vivo, mouse; details: oral capecitabine 500 mg/kg; for concentration at 2 h: female, mouse, oral, 500 mg/kg
Experimental: (§1) For capecitabine 2-h experiments, 6–7 female mice received oral capecitabine (500 mg/kg, 10 μL/g), and tail vein blood samples were collected at 0.125, 0.25, 0.5 and 1 h after drug administration. For the vinorelbine 4-h experiment, 6-7 male mice received vinorelbine intravenously (10 mg/kg, 5 μL/g) or orally (10 mg/kg, 10 μL/g) using a blunt-ended needle. Tail vein blood samples were collected at 0.125, 0.25, 0.5, 1 and 2 h after drug administration. […] At the last time point in each experiment (2 or 4 h), mice were anesthetized with 5% isoflurane and blood was collected by cardiac puncture. […] Plasma was isolated from the blood by centrifugation at 9000 × g for 6 min at 4 °C, and the plasma fraction was collected and stored at −30 °C until analysis.
(§2) Concentrations of capecitabine (and its metabolites) and vinorelbine (and its metabolite) in mouse plasma samples and organ homogenates were determined using two independent validated high-performance liquid chromatography-tandem mass spectrometry assays.
(§3) Pharmacokinetic parameters were calculated by non-compartmental methods using the PK solver software. […] Differences were considered statistically significant when P < 0.05. All data are presented as mean ± SD.

[2] = Plasma pharmacokinetics of capecitabine and its metabolites after oral capecitabine in CES2-modified mice; format: in vivo, mouse; details: oral capecitabine 500 mg/kg; for AUC(0-t) / Cmax / Tmax / AUC0-2h / AUC0-2h ratio (metabolite/capecitabine): plasma; for AUC(0-t): read-out: AUC0-2h
Experimental: as §1, §2, §3

- liver concentration, fold greater in Ces2^–/– than in wild-type mice ([1]; female mice): 13.8 fold
- liver concentration, reduction in Ces2^–/–A compared with Ces2^–/– mice ([1]; female mice): 74.2%
- liver concentration, reduction in Ces2^–/–V compared with Ces2^–/– mice ([1]; female mice): 63.5%
- small intestine concentration, fold higher in Ces2^-/- than in wild-type mice ([1]; female mice): 10.6 fold
- concentration at 2 h ([1]; Ces2^-/-, liver, female Ces2^–/– mice, read-out: Cliver (liver concentration)): 18000 ± 8740 ng/g
- concentration at 2 h ([1]; Ces2^-/-, small intestine, female Ces2^–/– mice, read-out: CSI (small intestine tissue concentration)): 17200 ± 6550 ng/g
- concentration at 2 h ([1]; Ces2^-/-A, liver, female Ces2^–/–A mice, read-out: Cliver (liver concentration)): 4650 ± 1760 ng/g
- concentration at 2 h ([1]; Ces2^-/-A, small intestine tissue, female Ces2^–/–A mice, read-out: CSI (small intestine tissue concentration)): 15200 ± 6020 ng/g
- concentration at 2 h ([1]; Ces2^-/-V, liver, female Ces2^–/–V mice, read-out: Cliver (liver concentration)): 6570 ± 3220 ng/g
- concentration at 2 h ([1]; Ces2^-/-V, small intestine, female Ces2^–/–V mice, read-out: CSI (small intestine tissue concentration)): 2410 ± 1190 ng/g
- concentration at 2 h ([1]; Ces2^–/– (Ces2 cluster knockout), small intestine, female Ces2^–/– mice, read-out: CSI (small intestine tissue concentration)): 17200 ng/g
- concentration at 2 h ([1]; colon, female Ces2^–/– mice, read-out: Ccolon (colon concentration)): 14300 ± 9020 ng/g
- concentration at 2 h ([1]; colon, female Ces2^–/–A mice, read-out: Ccolon (colon concentration)): 8780 ± 1630 ng/g
- concentration at 2 h ([1]; colon, female Ces2^–/–V mice, read-out: Ccolon (colon concentration)): 4970 ± 2980 ng/g
- concentration at 2 h ([1]; colon, female wild-type mice, read-out: Ccolon (colon concentration)): 2250 ± 712 ng/g
- concentration at 2 h ([1]; liver, female wild-type mice, read-out: Cliver (liver concentration)): 1300 ± 522 ng/g
- concentration at 2 h ([1]; small intestine contents, female Ces2^–/– mice, read-out: CSIC (small intestine contents concentration)): 97200 ± 37200 ng/g
- concentration at 2 h ([1]; small intestine contents, female Ces2^–/–A mice, read-out: CSIC (small intestine contents concentration)): 88500 ± 25100 ng/g
- concentration at 2 h ([1]; small intestine contents, female Ces2^–/–V mice, read-out: CSIC (small intestine contents concentration)): 49700 ± 45900 ng/g
- concentration at 2 h ([1]; small intestine contents, female wild-type mice, read-out: CSIC (small intestine contents concentration)): 26500 ± 16300 ng/g
- concentration at 2 h ([1]; small intestine tissue, female wild-type mice, read-out: CSI (small intestine tissue concentration)): 1630 ± 865 ng/g
- concentration at 2 h ([1]; small intestine, female Ces2^–/–V mice, read-out: CSI (small intestine tissue concentration)): 2410 ± 1190 ng/g
- plasma AUC0-2h, fold greater in Ces2^–/– than in wild-type mice ([2]; female mice): 5.3 fold
- plasma AUC0-2h, lower in Ces2^–/–V than in Ces2^–/– mice ([2]; female mice): 44%
- AUC(0-t) ([2]; female, Ces2^–/– (Ces2 cluster knockout), mouse, po, 500 mg/kg, female Ces2^–/– mice): 31300 ± 16600 ng·h/mL
- Cmax ([2]; female, Ces2^–/– (Ces2 cluster knockout), mouse, po, 500 mg/kg, female Ces2^–/– mice, read-out: Cmax): 42600 ± 17800 ng/mL
- Tmax ([2]; female, Ces2^–/– (Ces2 cluster knockout), mouse, po, 500 mg/kg, female Ces2^–/– mice, read-out: Tmax): 12.6 ± 3.6 min
- AUC(0-t) ([2]; female, mouse, po, 500 mg/kg, female Ces2^–/–A mice): 31500 ± 19200 ng·h/mL
- Cmax ([2]; female, mouse, po, 500 mg/kg, female Ces2^–/–A mice, read-out: Cmax): 47000 ± 34100 ng/mL
- Tmax ([2]; female, mouse, po, 500 mg/kg, female Ces2^–/–A mice, read-out: Tmax): 10.2 ± 4.2 min
- AUC(0-t) ([2]; female, mouse, po, 500 mg/kg, female Ces2^–/–V mice): 17500 ± 9710 ng·h/mL
- Cmax ([2]; female, mouse, po, 500 mg/kg, female Ces2^–/–V mice, read-out: Cmax): 23400 ± 14100 ng/mL
- Tmax ([2]; female, mouse, po, 500 mg/kg, female Ces2^–/–V mice, read-out: Tmax): 9.6 ± 3.6 min
- AUC(0-t) ([2]; female, mouse, po, 500 mg/kg, female wild-type mice): 5850 ± 1380 ng·h/mL
- Cmax ([2]; female, mouse, po, 500 mg/kg, female wild-type mice, read-out: Cmax): 12200 ± 3800 ng/mL
- Tmax ([2]; female, mouse, po, 500 mg/kg, female wild-type mice, read-out: Tmax): 11.4 ± 4.2 min
SMILES: CCCCCOC(=O)Nc1nc(=O)n([C@@H]2O[C@H](C)[C@@H](O)[C@H]2O)cc1F [Capecitabine, reference compound]

SMILES: NCC(F)C(=O)O (stereo not shown) [FBAL]
- CSI (small intestine tissue concentration) ([1]; female Ces2^–/– mice): 1239 ± 335 ng/g
- Ccolon (colon concentration) ([1]; female Ces2^–/– mice): 1355 ± 281 ng/g
- Cliver (liver concentration) ([1]; female Ces2^–/– mice): 59839 ± 11722 ng/g
- Colon concentration ratio (metabolite/capecitabine) ([1]; female Ces2^–/– mice): 0.12 ± 0.05
- Liver concentration ratio (metabolite/capecitabine) ([1]; female Ces2^–/– mice): 4.2 ± 2.7
- Small intestine concentration ratio (metabolite/capecitabine) ([1]; female Ces2^–/– mice): 0.08 ± 0.05
- CSI (small intestine tissue concentration) ([1]; female Ces2^–/–A mice): 2193 ± 960 ng/g
- Ccolon (colon concentration) ([1]; female Ces2^–/–A mice): 2105 ± 600 ng/g
- Cliver (liver concentration) ([1]; female Ces2^–/–A mice): 102959 ± 17203 ng/g
- Colon concentration ratio (metabolite/capecitabine) ([1]; female Ces2^–/–A mice): 0.24 ± 0.02
- Liver concentration ratio (metabolite/capecitabine) ([1]; female Ces2^–/–A mice): 25 ± 11
- Small intestine concentration ratio (metabolite/capecitabine) ([1]; female Ces2^–/–A mice): 0.15 ± 0.04
- CSI (small intestine tissue concentration) ([1]; female Ces2^–/–V mice): 1830 ± 655 ng/g
- Ccolon (colon concentration) ([1]; female Ces2^–/–V mice): 2080 ± 446 ng/g
- Cliver (liver concentration) ([1]; female Ces2^–/–V mice): 77125 ± 16534 ng/g
- Colon concentration ratio (metabolite/capecitabine) ([1]; female Ces2^–/–V mice): 0.60 ± 0.36^###^
- Liver concentration ratio (metabolite/capecitabine) ([1]; female Ces2^–/–V mice): 18 ± 16
- Small intestine concentration ratio (metabolite/capecitabine) ([1]; female Ces2^–/–V mice): 1.5 ± 2.0^###^^^
- CSI (small intestine tissue concentration) ([1]; female wild-type mice): 1174 ± 174 ng/g
- Ccolon (colon concentration) ([1]; female wild-type mice): 1322 ± 249 ng/g
- Cliver (liver concentration) ([1]; female wild-type mice): 55840 ± 13861 ng/g
- Colon concentration ratio (metabolite/capecitabine) ([1]; female wild-type mice): 0.62 ± 0.16
- Liver concentration ratio (metabolite/capecitabine) ([1]; female wild-type mice): 48 ± 19
- Small intestine concentration ratio (metabolite/capecitabine) ([1]; female wild-type mice): 0.86 ± 0.38
- AUC0-2h ([2]; female Ces2^–/– mice): 1833 ± 504 ng·h/mL
- AUC0-2h ratio (metabolite/capecitabine) ([2]; female Ces2^–/– mice): 0.07 ± 0.04
- Cmax ([2]; female Ces2^–/– mice): 1684 ± 597 ng/mL
- Tmax ([2]; female Ces2^–/– mice): 120 ± 0 min
- AUC0-2h ([2]; female Ces2^–/–A mice): 2910 ± 671 ng·h/mL
- AUC0-2h ratio (metabolite/capecitabine) ([2]; female Ces2^–/–A mice): 0.12 ± 0.06
- Cmax ([2]; female Ces2^–/–A mice): 2923 ± 760 ng/mL
- Tmax ([2]; female Ces2^–/–A mice): 108 ± 24 min
- AUC0-2h ([2]; female Ces2^–/–V mice): 2874 ± 659 ng·h/mL
- AUC0-2h ratio (metabolite/capecitabine) ([2]; female Ces2^–/–V mice): 0.20 ± 0.09
- Cmax ([2]; female Ces2^–/–V mice): 2606 ± 698 ng/mL
- Tmax ([2]; female Ces2^–/–V mice): 120 ± 0 min
- AUC0-2h ([2]; female wild-type mice): 1966 ± 158 ng·h/mL
- AUC0-2h ratio (metabolite/capecitabine) ([2]; female wild-type mice): 0.35 ± 0.08
- Cmax ([2]; female wild-type mice): 1755 ± 308 ng/mL
- Tmax ([2]; female wild-type mice): 120 ± 0 min
